The values that follow come from paper PMC6586795 (Nature Communications, 2019).

This assay deals with T1, Drosophila melanogaster dopamine transporter (dDAT) (Drosophila melanogaster, UniProt Q7K4Y6).
T1 construct: gene DAT; Full-length wild-type dDAT with a C-terminal thrombin site and 8 histidine-tag
The assay is described as follows: [3H]nisoxetine saturation binding, scintillation proximity assay on purified dDAT. Background: SPA uses beads or plates that emit light when radiolabelled molecules are held near them.

Structures are written as SMILES.

T1 sequence (Q7K4Y6 whole entry): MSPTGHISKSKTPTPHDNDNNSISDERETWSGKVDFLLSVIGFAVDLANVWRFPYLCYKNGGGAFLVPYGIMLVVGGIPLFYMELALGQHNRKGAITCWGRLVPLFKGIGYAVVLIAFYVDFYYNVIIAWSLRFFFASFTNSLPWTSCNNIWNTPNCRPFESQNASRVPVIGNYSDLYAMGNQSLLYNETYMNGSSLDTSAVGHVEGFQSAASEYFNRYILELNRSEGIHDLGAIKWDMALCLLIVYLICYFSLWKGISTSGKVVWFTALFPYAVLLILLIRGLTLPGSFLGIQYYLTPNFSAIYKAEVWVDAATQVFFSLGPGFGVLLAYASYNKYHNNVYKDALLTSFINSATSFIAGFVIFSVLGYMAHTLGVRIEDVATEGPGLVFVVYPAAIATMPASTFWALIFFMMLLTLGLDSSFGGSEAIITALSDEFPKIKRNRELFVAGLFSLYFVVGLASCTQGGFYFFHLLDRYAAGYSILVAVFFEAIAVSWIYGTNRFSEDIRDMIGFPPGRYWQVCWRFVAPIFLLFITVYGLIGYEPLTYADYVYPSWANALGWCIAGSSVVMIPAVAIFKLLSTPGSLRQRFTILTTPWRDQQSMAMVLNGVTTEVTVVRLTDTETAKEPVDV

Usually Kd stands for a measure of binding affinity in units of concentration. Turning to `CNCCC(Oc1ccccc1OC)c1ccccc1` (stereo not shown) [nisoxetine], binding was characterised by a dissociation constant (Kd) of 80 ± 6 nM.
